Legend:
[1] = Hygroscopic properties: weight change on exposure to increasing relative humidity; assay type: physicochemical; settings: for Weight Change: 25 °C
Experimental: The hygroscopic properties of an active ingredient of the disclosure was shown by exposing N-(3-(2-(6-amino-4-(trifluoromethyl)pyridin-3-yl)-4-morpholinopyrido[3,2-d]pyrimidin-6-yl)-2-fluorophenyl)-3-fluoropropane-1-sulfonamide to increasing relative humidity (from 0% to 95%) at 25 degrees Celsius over 3200 minutes, and measuring the weight change of the active ingredient.

ST052B tumor = ST052B tumor xenograft model (vemurafenib-sensitive melanoma); assay type: in vivo; settings: ST052B xenograft mice, oral BID; active ingredient at 20 mg/kg; over the vehicle control
Experimental: The ST052B tumor is derived from a melanoma patient prior to treatment with vemurafenib. ST052B tumor cells were implanted into mice to form xenograft tumors, and the mice were dosed orally BID in four treatment groups: 1) vehicle control; 2) Dabrafenib; […]; 3) active ingredient (N-(3-(2-(6-amino-4-(trifluoromethyl)pyridin-3-yl)-4-morpholinopyrido[3,2-d]pyrimidin-6-yl)-2-fluorophenyl)-3-fluoropropane-1-sulfonamide) at 10 mg/kg; and 4) the same active ingredient at 20 mg/kg.

Structure (SMILES): Nc1cc(C(F)(F)F)c(-c2nc(N3CCOCC3)c3nc(-c4cccc(NS(=O)(=O)CCCF)c4F)ccc3n2)cn1 [CMPD A, N-(3-(2-(6-amino-4-(trifluoromethyl)pyridin-3-yl)-4-morpholinopyrido[3,2-d]pyrimidin-6-yl)-2-fluorophenyl)-3-fluoropropane-1-sulfonamide]
- Weight Change ([1]; relative humidity 0 %, time 299.93 min): 0.00001911%
- Weight Change ([1]; relative humidity 10 %, time 630.76 min): 0.3832%
- Weight Change ([1]; relative humidity 20 %, time 750.76 min): 0.5299%
- Weight Change ([1]; relative humidity 30 %, time 1190.76 min): 1.087%
- Weight Change ([1]; relative humidity 40 %, time 1790.77 min): 1.782%
- Weight Change ([1]; relative humidity 50 %, time 2390.77 min): 2.661%
- Weight Change ([1]; relative humidity 60 %, time 2880.77 min): 3.26%
- Weight Change ([1]; relative humidity 70 %, time 3010.78 min): 3.407%
- Weight Change ([1]; relative humidity 80 %, time 3120.78 min): 3.533%
- Weight Change ([1]; relative humidity 90 %, time 3200.79 min): 3.635%
- hygroscopic properties ([1]; relative humidity 0% to 95%, 25 degrees Celsius, 3200 minutes): hygroscopic
- inhibition of tumor growth (ST052B tumor): dose-dependent inhibition of tumor growth
